Two compounds from PMC10570359, “Dietary supplementation of cystinotic mice by lysine inhibits the megalin pathway and decreases kidney cystine content” (Scientific Reports, 2023) can be followed below.

The target in one series is porcine megalin (Sus scrofa, UniProt C0HL13). As to the kind of experiment: Surface plasmon resonance: competition for TC:B12 binding to chip-immobilized megalin. The following applies: for IC50: IC50 for TC:B12/megalin interaction (mM; 95%CI), 10 µg/ml TC:B12 in 0 to 100 mM amino-acid, Biacore; for SPR signal of amino-acid alone on megalin chip: chips exposed to increasing concentrations of amino-acid, no analyte. On the procedure:
To directly address whether supra-physiological concentrations of dibasic amino-acids (dAAs) can interfere with binding of protein ligands to megalin, we used surface plasmon resonance. Sensor chips were derivatized with porcine megalin at high density. […] After flushing, chips were incubated with 10 µg/ml of three analytes: the megalin chaperone, RAP (receptor-associated protein), as positive control (not shown), or two physiological megalin ligands: transcobalamine:cobalamine complexes (TC:B12; Fig. 1; sensorgrams shown at Supplemental Fig. 1a) or lysozyme (Supplemental Fig. 1b), diluted in 0 to 100 mM of the same amino-acids in buffer. […] The supraphysiological range for effective competition in vitro defined the necessary increment in urinary concentration from dietary supplementation for significant competition in vivo.
Figure 1 Acellular assay: direct competition for transcobalamine:cobalamine binding to megalin immobilized on Biacore sensor chips. Signals of sensorgrams (shown in Supplemental Fig. 1) were normalized to control signal without AA supplementation, taken as the unity, and are means ± SEM of at least four independent technical duplicate values at each of the indicated amino-acid-concentrations.
Surface plasmon resonance (SPR) analysis of the binding to chip-immobilized megalin of receptor-associated protein (RAP), transcobalamine:cobalamine complex (TC:B12) and lysozyme was carried out using a Biacore T200 instrument (Uppsala, Sweden). The sensor chips (type CM5) were activated with a 1:1 mixture of 0.2 M N-ethyl-N′-(3-dimethylaminopropyl) carbodiimide and 0.05 M N-hydroxysuccinimide in H2O. Porcine megalin[49] was immobilized on the chip in 10 mM sodium acetate, pH 4.0, and the remaining binding sites were blocked with 1 M ethanolamine, pH 8.5. The SPR signal generated from immobilized megalin were obtained with a density of 4.5 fmol protein/mm^2.
Human RAP was produced as recombinant protein in E. coli[50] and used to validate the sensor chip. TC was purified and complexed with B12 as described (TC/B12)[50],[51]. Human recombinant lysozyme was purchased from Sigma-Aldrich (expressed in rice, # L1667). Sensorgrams were generated using each of these three ligands at 10 µg/ml in a running buffer consisting of 10 mM Hepes, 150 mM NaCl, 4 mM CaCl2 and 0.05% Tween 20, pH 7.4. The flow cells were regenerated with 1 M ethanolamine pH 9.0. Analyte testing was performed as a dual injection starting with running buffer supplemented with the defined concentrations of amino acids followed by injection of analyte in the same solution. The pH of all buffers was adjusted after amino acids addition. All binding experiments were made as at least independent triplicate of technical duplicates and data were analyzed using the Biacore T200 evaluation software version 3.1.

The test system of another series is megalin pathway. As to the kind of experiment: LMW proteinuria / albuminuria in Ctns KO mice under 5x-dAA diets.
Series [1] can be described thus: Urinary and serum amino-acid concentration by mass spectrometry in Ctns KO mice. The following applies: for Urinary alanine / Urinary cystine / Urinary glycine: Ctns KO mice at 8 months of age, 24-h urine, mean ± SEM; for increase of cystinuria: vs control diet; for concentration at 2 months: n = 4. Format: in vivo. The procedure: Body weight was recorded before entering the metabolic cages. […] Creatinine clearance was normalized by mouse body weight.
Quantitative analysis of underivatized amino-acids in serum and urine samples was performed using the Amino Acids LC–MS/MS analysis Kit Jasem®. […] Equipment was controlled and data were analyzed using MassHunter Workstation (Agilent Technologies). The assay was validated for selectivity, specificity, linearity and limit of quantification, accuracy and precision, matrix effects and recovery, and stability.

The test system of series [2] is kidney proximal tubular cells. The series is described as follows: Triple fluorescence of lysosomes and endogenous albumin in PTCs of Ctns KO mice (2-to-6 months diet). Format: in vivo. To be noted: Ctns KO female mice, diet from 2-to-6 months-of-age. On the procedure:
For in vivo endocytic tracing in PTCs, Texas Red-ovalbumin (300 µg, Invitrogen #O23021) was injected intravenously at 20 min before sacrifice. For immunofluorescence, antigen retrieval was promoted in citrate buffer, pH 6, at 95 °C for 20 min using a Lab Vision Pretreatment Module™ (Thermo Scientific). Tissue was permeabilized with PBS/0.3% Triton-X100 for 5 min, then for one further hour with 10% bovine serum albumin (BSA)/3% milk to block non-specific sites. Sections were incubated overnight at 4 °C with the following primary reagents in blocking buffer: sheep anti-megalin (1/800, kindly provided by Drs P. Verroust and R. Kozyraki, INSERM U968, Paris, F-75012, FR), rat anti-LAMP-1 (1/100; #1D4B, Hybridoma Bank), mouse anti-ezrin (1/100, #MS-661-P1, ThermoScientific), mouse anti-Ki67 (1/250, #556003, BD-Pharmingen), rabbit anti-human albumin (1/1000; Dako #A0001). After washing, sections were further incubated with the appropriate AlexaFluor-secondary antibodies for 1 h at room temperature in 10% BSA/0.3% Triton-X100 and mounted with Faramount aqueous mounting medium (Dako). Sections were imaged on a spinning disk confocal microscope using EC Plan-NeoFluar 40X/1.3 or 100x/1.4 Oil DIC objective (Cell Observer Spinning Disk; Zeiss). Proliferative events in kidney cortex were quantified as described. Alternatively, whole kidney images were acquired using a Pannoramic 250 Flash III microscope (3DHistech). Histological PAS staining and quantification of the frequency of swan-neck lesions were performed as described. Sirius Red staining of paraffine sections and morphometry in total sagittal kidney sections after conversion to red fluorescence were performed as described[53],[54]. […]
Supplemental Figure 3. […]
not detected within PT lysosomes of dAA-treated mice under identical immunolabeling /imaging conditions, indicating impaired endocytosis and/or […] degradation upon dbAA supplementation. […]

Setting [3] is: Ctns KO mice at 8 months of age, 2 months of treatment, urine, mean ± SEM.
Setting [4] is: Ctns KO mice, daily urine collections.
Setting [5] is: female, C57BL/6, mouse, in vivo, 2 months.

Read-outs that look alike come from different tables or passages of the source.

Sequence of porcine megalin (C0HL13 26-4652): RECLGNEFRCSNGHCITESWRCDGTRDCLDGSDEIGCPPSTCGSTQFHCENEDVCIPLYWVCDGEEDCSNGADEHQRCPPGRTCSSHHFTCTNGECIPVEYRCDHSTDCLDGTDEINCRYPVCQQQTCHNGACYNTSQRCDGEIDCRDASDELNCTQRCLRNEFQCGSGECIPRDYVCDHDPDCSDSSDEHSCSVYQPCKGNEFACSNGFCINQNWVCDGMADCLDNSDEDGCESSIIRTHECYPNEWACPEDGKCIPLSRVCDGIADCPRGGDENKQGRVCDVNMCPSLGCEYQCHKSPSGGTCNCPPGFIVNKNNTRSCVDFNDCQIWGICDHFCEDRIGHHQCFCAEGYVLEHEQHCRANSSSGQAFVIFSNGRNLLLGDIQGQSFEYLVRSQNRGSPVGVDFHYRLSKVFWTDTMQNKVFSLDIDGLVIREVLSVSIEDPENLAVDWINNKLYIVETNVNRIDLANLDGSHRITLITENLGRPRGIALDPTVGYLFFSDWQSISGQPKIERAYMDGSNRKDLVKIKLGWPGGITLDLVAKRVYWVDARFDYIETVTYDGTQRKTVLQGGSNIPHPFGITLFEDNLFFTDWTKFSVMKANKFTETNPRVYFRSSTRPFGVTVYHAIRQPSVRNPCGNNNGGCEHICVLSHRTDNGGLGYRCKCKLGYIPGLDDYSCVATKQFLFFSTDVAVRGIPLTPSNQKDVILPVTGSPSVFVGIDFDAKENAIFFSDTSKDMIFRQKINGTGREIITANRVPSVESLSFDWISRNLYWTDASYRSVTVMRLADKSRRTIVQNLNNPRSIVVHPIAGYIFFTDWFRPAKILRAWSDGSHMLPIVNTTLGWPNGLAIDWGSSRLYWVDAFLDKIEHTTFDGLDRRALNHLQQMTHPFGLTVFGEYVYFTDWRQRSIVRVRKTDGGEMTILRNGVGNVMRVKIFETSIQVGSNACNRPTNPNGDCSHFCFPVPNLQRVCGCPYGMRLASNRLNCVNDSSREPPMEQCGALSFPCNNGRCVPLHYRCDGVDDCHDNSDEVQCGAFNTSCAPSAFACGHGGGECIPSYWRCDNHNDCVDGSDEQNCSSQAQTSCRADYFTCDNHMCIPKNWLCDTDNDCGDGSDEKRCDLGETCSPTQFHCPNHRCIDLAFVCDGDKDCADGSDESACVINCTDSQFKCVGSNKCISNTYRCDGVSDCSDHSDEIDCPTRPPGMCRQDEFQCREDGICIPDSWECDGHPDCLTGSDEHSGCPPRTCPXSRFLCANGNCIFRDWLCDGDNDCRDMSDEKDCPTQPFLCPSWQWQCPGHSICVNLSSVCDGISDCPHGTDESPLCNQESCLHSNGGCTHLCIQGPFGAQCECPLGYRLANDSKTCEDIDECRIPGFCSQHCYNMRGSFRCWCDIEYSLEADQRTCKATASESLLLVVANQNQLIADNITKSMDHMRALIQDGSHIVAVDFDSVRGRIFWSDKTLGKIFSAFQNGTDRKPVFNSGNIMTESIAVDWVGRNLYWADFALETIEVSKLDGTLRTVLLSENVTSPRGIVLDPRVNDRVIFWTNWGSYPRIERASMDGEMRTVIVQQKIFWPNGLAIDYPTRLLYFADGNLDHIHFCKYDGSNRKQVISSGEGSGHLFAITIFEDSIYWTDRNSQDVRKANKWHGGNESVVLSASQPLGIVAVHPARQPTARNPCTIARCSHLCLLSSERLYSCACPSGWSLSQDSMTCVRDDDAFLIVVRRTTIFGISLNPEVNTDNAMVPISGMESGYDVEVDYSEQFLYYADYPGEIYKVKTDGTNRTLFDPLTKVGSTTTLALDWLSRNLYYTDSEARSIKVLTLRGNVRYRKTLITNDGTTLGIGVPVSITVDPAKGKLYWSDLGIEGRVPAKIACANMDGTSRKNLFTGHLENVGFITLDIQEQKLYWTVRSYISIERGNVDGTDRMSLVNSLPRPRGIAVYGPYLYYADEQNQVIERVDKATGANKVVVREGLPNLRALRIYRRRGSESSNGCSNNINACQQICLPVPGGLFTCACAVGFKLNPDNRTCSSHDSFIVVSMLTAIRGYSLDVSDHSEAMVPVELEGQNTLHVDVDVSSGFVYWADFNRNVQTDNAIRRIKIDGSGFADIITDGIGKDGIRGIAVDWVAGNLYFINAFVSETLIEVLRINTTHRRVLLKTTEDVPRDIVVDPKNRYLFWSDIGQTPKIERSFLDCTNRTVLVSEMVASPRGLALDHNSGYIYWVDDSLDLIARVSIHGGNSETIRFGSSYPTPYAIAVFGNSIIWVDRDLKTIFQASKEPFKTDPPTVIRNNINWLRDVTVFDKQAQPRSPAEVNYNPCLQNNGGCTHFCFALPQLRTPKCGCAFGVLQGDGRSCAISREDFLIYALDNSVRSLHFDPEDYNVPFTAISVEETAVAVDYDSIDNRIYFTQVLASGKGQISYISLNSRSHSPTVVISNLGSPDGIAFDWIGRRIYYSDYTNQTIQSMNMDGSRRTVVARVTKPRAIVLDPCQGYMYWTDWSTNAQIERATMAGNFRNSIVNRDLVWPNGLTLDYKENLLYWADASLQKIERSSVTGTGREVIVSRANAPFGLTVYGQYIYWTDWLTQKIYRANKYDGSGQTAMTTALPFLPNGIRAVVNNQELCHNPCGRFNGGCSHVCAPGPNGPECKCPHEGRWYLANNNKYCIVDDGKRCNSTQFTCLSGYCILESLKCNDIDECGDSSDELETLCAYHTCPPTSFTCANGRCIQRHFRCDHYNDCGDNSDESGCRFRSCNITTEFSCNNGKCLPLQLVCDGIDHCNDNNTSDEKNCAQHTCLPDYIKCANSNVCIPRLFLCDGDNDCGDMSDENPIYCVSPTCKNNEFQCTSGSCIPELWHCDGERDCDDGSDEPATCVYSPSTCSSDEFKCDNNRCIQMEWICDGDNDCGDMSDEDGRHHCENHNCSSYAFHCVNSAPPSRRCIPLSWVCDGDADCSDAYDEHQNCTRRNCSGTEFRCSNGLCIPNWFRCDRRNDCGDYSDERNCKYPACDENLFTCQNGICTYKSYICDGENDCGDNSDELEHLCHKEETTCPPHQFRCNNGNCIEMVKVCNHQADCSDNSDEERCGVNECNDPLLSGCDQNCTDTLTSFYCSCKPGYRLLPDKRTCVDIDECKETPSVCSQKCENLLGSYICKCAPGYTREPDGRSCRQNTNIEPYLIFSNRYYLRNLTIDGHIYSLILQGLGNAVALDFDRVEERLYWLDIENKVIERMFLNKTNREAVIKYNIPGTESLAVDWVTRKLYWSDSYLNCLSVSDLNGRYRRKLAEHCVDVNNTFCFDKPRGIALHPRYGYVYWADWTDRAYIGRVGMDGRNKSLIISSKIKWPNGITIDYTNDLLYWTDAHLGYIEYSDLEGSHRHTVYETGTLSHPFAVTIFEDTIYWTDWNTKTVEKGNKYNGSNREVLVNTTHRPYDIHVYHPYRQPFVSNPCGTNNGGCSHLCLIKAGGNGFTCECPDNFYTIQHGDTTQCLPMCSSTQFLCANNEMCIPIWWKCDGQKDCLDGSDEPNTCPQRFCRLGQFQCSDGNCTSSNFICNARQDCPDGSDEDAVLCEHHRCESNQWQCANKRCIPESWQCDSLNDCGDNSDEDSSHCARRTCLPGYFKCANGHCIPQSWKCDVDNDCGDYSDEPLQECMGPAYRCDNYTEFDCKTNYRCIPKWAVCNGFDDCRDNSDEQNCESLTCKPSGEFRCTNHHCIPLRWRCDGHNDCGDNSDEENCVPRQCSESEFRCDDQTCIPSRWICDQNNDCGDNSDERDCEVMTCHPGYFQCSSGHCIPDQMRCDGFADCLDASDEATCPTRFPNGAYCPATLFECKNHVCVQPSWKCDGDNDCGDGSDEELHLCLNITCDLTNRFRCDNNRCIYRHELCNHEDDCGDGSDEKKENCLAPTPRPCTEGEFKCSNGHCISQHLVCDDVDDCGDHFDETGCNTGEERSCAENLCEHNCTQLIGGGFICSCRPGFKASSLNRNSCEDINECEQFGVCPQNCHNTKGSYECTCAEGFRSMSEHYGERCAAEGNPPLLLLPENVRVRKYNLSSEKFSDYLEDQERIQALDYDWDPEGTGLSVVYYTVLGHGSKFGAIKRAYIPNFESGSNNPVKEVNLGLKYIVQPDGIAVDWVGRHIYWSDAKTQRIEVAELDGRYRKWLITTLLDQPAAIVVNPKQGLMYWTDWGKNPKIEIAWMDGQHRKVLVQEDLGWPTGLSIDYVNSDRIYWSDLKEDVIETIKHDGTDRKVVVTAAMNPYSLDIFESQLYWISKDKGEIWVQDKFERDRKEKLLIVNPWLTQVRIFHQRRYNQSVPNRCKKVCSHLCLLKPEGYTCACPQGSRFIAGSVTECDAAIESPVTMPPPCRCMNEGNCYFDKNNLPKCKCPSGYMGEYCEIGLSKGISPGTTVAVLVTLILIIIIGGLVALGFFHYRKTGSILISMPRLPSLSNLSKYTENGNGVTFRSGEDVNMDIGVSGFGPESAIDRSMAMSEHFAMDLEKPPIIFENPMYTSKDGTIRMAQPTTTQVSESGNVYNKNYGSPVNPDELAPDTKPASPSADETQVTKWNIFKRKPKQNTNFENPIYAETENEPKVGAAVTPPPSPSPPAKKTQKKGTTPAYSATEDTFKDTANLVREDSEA
Protocol for megalin pathway: After 24-h adaptation in metabolic cages, urine was collected during the following 24 h in presence of 0.1% sodium azide and 1x-protease inhibitors (Thermo Scientific). When in metabolic cages, mice had free access to tap water and food. Blood was collected 2 days before starting the treatments and entry into metabolic cages (baseline) and at the sacrifice to obtain serum. Body weight was recorded before entering the metabolic cages. Urine and serum analyses were performed by the veterinary laboratory Appialab Srl (Rome, Italy). Urinary levels of CC16 were measured by the Mouse Clara Cell Protein 16 kit 96 T #EKU03200 (Biomatik) according to manufacturer’s instructions. Serum levels of cystatin-C were measured by the Mouse/Rat Cystatin C Quantitative ELISA #MSCTC0 (R&D Systems). […] Creatinine clearance was normalized by mouse body weight.

As for `N=C(N)NCCC[C@H](N)C(=O)O` [5x-L-arginine, L-arginine], on porcine megalin, the IC50 stood at 57 mM and the “SPR signal of amino-acid alone on megalin chip” value was “no signal was detected”. Also, the “Urine CC16/creatinine” value in the series with megalin pathway (setting [3]) was determined as 3151 ± 556.1 µg/g. In series [1], this compound gave a Urinary alanine of 712.5 ± 216.9 mM/M creatinine, a Urinary cystine of 146.6 ± 43.7 mM/M creatinine and a Urinary glycine of 963.7 ± 218.1 mM/M creatinine. The “urinary arginine concentration reached” value in series [1] (setting [4]) is ~ 1 mM. For the same compound, the increase of cystinuria entry in series [1] (Ctns KO mice) is listed as “twofold”. In series [1] (setting [5]), the increase of argininuria worked out at 33 fold. Further, the concentration at 2 months in series [1] (female, C57BL/6, mouse, serum, oral, 7.6 g/kg/day, Ctns KO mice, read-out: serum arginine) was 137 ± 35 µM. The “lysosomal enlargement/deformation in PTCs” value in series [2] was “prevent lysosomal enlargement and distorsion”.
Consider `NCCCC[C@H](N)C(=O)O` [5x-L-lysine, L-lysine], for which, on porcine megalin, the IC50 was determined as 25 mM and the “SPR signal of amino-acid alone on megalin chip” value was “no signal was detected”. Besides, in the series on megalin pathway (Ctns KO female mice, diet from 6-to-8 months of age), the “increase of microalbuminuria vs control diet” value is given as “no detectable increase”. In the series with megalin pathway (setting [3]), the “Urine CC16/creatinine” value turned out to be 4314 ± 540.3 µg/g and the Urine microalbumin/creatinine stood at 0.1 ± 0.0 mg/g. In series [1], this compound returned a Urinary alanine of 639.6 ± 279.6 mM/M creatinine, a Urinary cystine of 504.5 ± 61.2 mM/M creatinine and a Urinary glycine of 881.0 ± 265.9 mM/M creatinine. Further, the “urinary lysine concentration reached” value in series [1] (setting [4]) is ~ 25 mM. This compound yielded an increase of cystinuria in series [1] (Ctns KO mice) of 8 fold. In series [1] (setting [5]), this compound returned an increase of argininuria of 25 fold and an increase of lysinuria of 210 fold. The concentration at 2 months in series [1] (female, C57BL/6, mouse, in vivo, 6.5 g/kg/day, Ctns KO mice, read-out: serum lysine) was 581 ± 15.5 µM. Further, in series [2], the “endogenous albumin signal in PTC lysosomes” value is recorded as “disappearance of albumin signal”; the “lysosomal enlargement/deformation in PTCs” value is “prevent lysosomal enlargement and distorsion”.
